# Results reported in patent publication US20100075918A1, “HYALURONIDASE INHIBITORS AS ANTI-CANCER AGENTS” (priority 2006, published 2010).
# Legend:
# [1] = tested on: HYAL1, testicular, honeybee, and Streptomyces hyaluronidases (HAases); conditions: Isoyama et al. (2006); 21 potential inhibitors; cited from earlier work
# HYAL1-type HAase = molecular target: T1, HYAL1-type HAase (Homo sapiens, UniProt Q12794); test: HAase ELISA-like assay, inhibition of HYAL1 activity; assay type: biochemical
# T1 construct: HYAL1 cDNA encoding the full-length protein inserted into an expression vector; made in house
# T1 sequence (Q12794 22-435): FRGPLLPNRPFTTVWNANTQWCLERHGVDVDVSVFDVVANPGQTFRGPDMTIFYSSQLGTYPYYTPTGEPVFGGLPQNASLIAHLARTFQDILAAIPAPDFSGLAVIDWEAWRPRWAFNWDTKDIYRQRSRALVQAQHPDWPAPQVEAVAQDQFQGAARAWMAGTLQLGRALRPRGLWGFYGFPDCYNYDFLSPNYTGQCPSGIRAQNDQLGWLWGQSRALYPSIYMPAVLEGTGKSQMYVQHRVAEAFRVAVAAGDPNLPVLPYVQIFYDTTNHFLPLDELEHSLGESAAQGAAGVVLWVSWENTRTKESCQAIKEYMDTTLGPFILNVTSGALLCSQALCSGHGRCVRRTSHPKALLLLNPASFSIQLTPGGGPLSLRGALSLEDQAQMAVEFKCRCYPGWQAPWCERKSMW
# Method: Briefly, a stable HYAL1-expressing clone having about 40 mU/mL activity was expanded in T75 cm^2 flasks.
# A microtiter well plate coated with human umbilical cord HA (MP Biomedicals; Irvine, Calif.) was incubated with about 40 mU/mL of HYAL1-type HAase in the presence or absence of various HAase inhibitors in assay buffer. For the HYAL1-type activity assay, 0.1 M sodium formate, 0.15 M NaCl, and 0.02% bovine serum albumin buffer (pH 4.2) was used as the assay buffer.
# The effect of HAase inhibitors on the activity of HYAL1-type HAase was tested at 0, 1, 2, 4, 6, 8, 10, 20, 40, 60, 80 and 100 μg/mL concentrations of each inhibitor. […] Each plate was developed for 3 min and the reaction was terminated by adding 3 N HCl. HAase activity (mU/mL) was calculated from a standard graph prepared by plotting known amounts of Streptomyces HAase (10^−4 U/mL) versus (Control (no enzyme) OD405 nm-Sample OD405 nm). […] The data presented are mean ±SEM from duplicate measurements in two independent experiments.
# HYAL1 = molecular target: T2, HYAL1 (Homo sapiens, UniProt Q12794); conditions: Isoyama et al. (2006); cited from earlier work
# T2 sequence (Q12794 22-435): T1 sequence (Q12794 22-435)
# [2] = about 40 mU/mL HYAL1-type HAase, pH 4.2, 37° C. for 16 hours, N.D. = no inhibition detected
Molecule,"IC50 (μg/mL), inhibition of HYAL1 activity (HYAL1-type HAase; [2])",further results
"CCCCCCCCCCCCCCS(=O)(=O)O [1-Tetradecane sulfonic acid, 1-tetradecane sulfonic acid]",,"Effectiveness as HAase inhibitor [1]: not effective HAase inhibitors; IC50 (HYAL1-type HAase; about 40 mU/mL HYAL1-type HAase, pH 4.2, 37° C. for 16 hours, N.D. = no inhibition detected, read-out: IC50 (μg/mL), inhibition of HYAL1 activity (converted)): 67.9 µM"
"CC1(C)[C@@H](O[C@H]2O[C@H](C(=O)O)[C@@H](O)[C@H](O)[C@H]2O[C@@H]2O[C@H](C(=O)O)[C@@H](O)[C@H](O)[C@H]2O)CC[C@]2(C)[C@H]3C(=O)C=C4[C@@H]5C[C@@](C)(C(=O)O)CC[C@]5(C)CC[C@@]4(C)[C@]3(C)CC[C@@H]12 [Glycerrhizic acid, glycerrhizic acid]",32.4 µg/mL,Effectiveness as HAase inhibitor [1]: not effective HAase inhibitors
O=C([O-])CC([S-])C(=O)[O-].[Au+].[Na+].[Na+] (stereo not drawn) [sodium aurothiomalate],,Effectiveness as HAase inhibitor [1]: not effective HAase inhibitors
Heparin,15.1 µg/mL,HYAL1 inhibition (HYAL1): potent inhibitor
"poly(styrene-4-sulfonate) [PSS 17,000]",15.2 µg/mL,
"poly(styrene-4-sulfonate) [PSS 32,000]",13.5 µg/mL,
"poly(styrene-4-sulfonate) [PSS 49,000]",15.2 µg/mL,
"poly(styrene-4-sulfonate) [PSS 77,000]",14.8 µg/mL,
"poly(styrene-4-sulfonate) [PSS 150,000]",10.5 µg/mL,
poly(styrene-4-sulfonate) [PSS 210],,IC50 for HYAL1 (HYAL1): no inhibition
"poly(styrene-4-sulfonate) [PSS 350,000]",13.15 µg/mL,
"poly(styrene-4-sulfonate) [PSS 990,000]",9.6 µg/mL,IC50 (HYAL1): 0.0096 µM
poly(styrene-4-sulfonate) [PSS 1400],26.8 µg/mL,"IC50 to inhibit HYAL1 activity, fold higher than that for PSS 999,000 and PSS 17,000 (HYAL1-type HAase): 2.5 fold"
poly(styrene-4-sulfonate) [PSS 4300],8.48 µg/mL,
poly(styrene-4-sulfonate) [PSS 6800],22.71 µg/mL,"IC50 to inhibit HYAL1 activity, fold higher than that for PSS 999,000 and PSS 17,000 (HYAL1-type HAase): 2.5 fold"
